{"source": "patent US10458996B1", "about": "“Methods for determining clinical response to TNF-alpha and/or JAK inhibitors in subjects with inflammatory diseases” (Beth Israel Deaconess Medical Center, Inc., priority 2016, dated 2019)", "key": {"patients with IBD": {"tested_on": "patients with IBD", "assay": "Clinical response to anti-TNFα therapy in study patients (review of hospital records)", "type": "in vivo, human", "description": "Upon study completion, a total of 28 patients ([…]) with IBD, 82% with CD, had received anti-TNFα therapy. Specifically, 18 patients were treated with infliximab, 8 patients with adalimumab, 1 patient with golimumab and 1 patient with cetrolizumab pegol. The study participants' hospital electronic records were reviewed by physicians blinded to the results of the ex vivo testing and clinical responses to treatment with anti-TNFα were assessed.\nPatients belonging to cohort 1 (N=6) came into the study as anti-TFNalpha naïve and had the shorter follow-up.\n(a) need for hospitalization or surgical intervention for IBD-related problems (N=4);\n(b) dose or frequency escalation of anti-TNFα treatment or switching to another anti-TNFα regimen (N=4);\n(c) adding corticosteroids or an immunomodulator to the therapeutic scheme (N=3);\n(d) treatment with emerging IBD drugs such as vedolizumab, tofacitinib, or ustekinumab (N=6)."}, "[1]": {"tested_on": "biopsy samples from patients with IBD", "assay": "Cytokine profiles of patient biopsy cultures in response to treatment with various agents (Example 2)", "type": "cell-based, human", "description": "(§1) From each patient, intestinal mucosal biopsies were minced into several pieces and distributed in 8 wells of a 96-well plate in 250 μl of Dulbecco's Modified Eagle Medium (DMEM) supplemented with 10% FBS and antibiotic-antimycotic (Life Technologies, CA). Half of the cultures were treated with infliximab (REMICADE®; 0.5 mg/ml; Janssen Biotech, Inc, NJ) and the plate was incubated at 37° C. in a humidified chamber of 95% O2/5% CO2 for 18 hours. Culture supernatants were collected, filtered and stored at −80° C. […] Signal detection and analysis was performed by MAGPIX® (Luminex Corporation, TX).\n[…] with 0.5 mg/ml infliximab (an anti-TNFα antibody; therapeutic agent), 100 μM tofacitinib (a Janus kinase (JAK) inhibitor) and an experimental drug (at 10 μM concentration) in accordance with the protocol described above. Following treatment, biopsy samples were obtained and analyzed for cytokine profiles using […].\nAdditional similar experiments were conducted for different patients using the same or different therapeutic agents, and the results are shown in FIG. 5D-5H."}, "[2]": {"tested_on": "patients with moderate-to-severe CD", "details": "week 24 of intervention; cited from earlier work"}, "patients with UC": {"tested_on": "patients with UC", "details": "cited from earlier work"}, "patients with CD and UC": {"tested_on": "patients with CD and UC", "details": "cited from earlier work"}, "[3]": {"details": "cited from earlier work"}, "[4]": {"tested_on": "intestinal mucosal explants from patients with IBD", "assay": "Ex vivo infliximab treatment of intestinal mucosal explant cultures, cytokines in supernatant by multiplex ELISA", "type": "cell-based, human", "details": "Clinical Response No (n = 17), infliximab 0.5 mg/ml, 18 hours", "description": "During a hospital visit for an endoscopic procedure that was part of their standard care, patients were asked by the study coordinator whether they were willing to participate in this research study and sign the informed consent approved by the Institution's Committee on Clinical Investigations. From each patient, four extra punch biopsies were taken from the macroscopically most diseased areas of the inflamed intestinal mucosa, put on ice and transferred to the lab within 30 minutes of their harvesting.\nas §1\nWithin each patient, differences in cytokine release between control and infliximab-treated cultures (n=4 per group) were assessed by the Mann-Whitney test. Cytokine changes in patients with CD (N=29) or UC (N=16) were expressed as mean±SEM and evaluated by unpaired t-test followed by Bonferroni correction for multiple comparisons. In rate or percentage comparisons a chi-square test was applied. The non-parametric Mann-Whitney test was chosen for the rest of two-group analyses. The STATView 2.0 software (SAS Institute) was used for all tests with the exception of the Receiver Operating Characteristic (ROC) analysis for which STATA13 was used.\nThe impact of anti-TNFα (infliximab) treatment was investigated in vitro using mucosal biopsy cultures derived from the most inflamed areas of the terminal ileum or colon of a total of 45 patients with IBD, 64% with CD and 36% with UC. At the time the biopsies were taken, 32 patients (71%) were receiving medications for their IBD and 16 of them were under an anti-TNFα regimen. The assay read-out consisted of a panel of 15 cytokines, chemokines and inflammatory mediators, and its design was based on previously reported biomarkers for CD and UC, on biomarkers that correlated with response to anti-TNFα treatment and on plausible TNF-alpha related biological mechanisms (Tracey et al., Rismo et al., Iskandar et al., Transl Res 159:313-325, 2012; Umehara et al., Hepatogastroenterology 53:879-882, 2006). For each patient and each cytokine, data were generated for the two conditions (plus/minus infliximab) using the median of 4 independent cultures."}, "[5]": {"details": "some values below detection limit or missing"}}, "data": [{"substance": "infliximab", "values": [{"measurement": "clinical response rate", "setting": "patients with IBD; patients positive in the ex vivo treatment (ex vivo responders, 10/12)", "result": 83, "unit": "%"}, {"measurement": "clinical response rate", "setting": "patients with IBD; patients with negative ex vivo results (ex vivo non-responders, 1/16)", "result": 6, "unit": "%"}, {"measurement": "biomarkers with reductions in level achieving statistical significance", "setting": "[1]; 0.5 mg/ml, cytokine responder group compared to non-responder group (FIG. 5A)", "result": "IL-12p40, IL-12p70, IL-13, IL-17A, IL-2, IL-4, IL-5, and IL-7"}, {"measurement": "TNFα levels", "setting": "[1]; 0.5 mg/ml, responder and non-responder groups (FIG. 5A)", "result": "significantly attenuated in both groups"}, {"measurement": "ex vivo response of patient", "setting": "[1]; patient ID 13-284 (FIG. 5D)", "result": "ex vivo responder"}, {"measurement": "changes in cytokine profile", "setting": "[1]; patient ID 13-284 (FIG. 5D), in addition to the direct target TNFα", "result": "three cytokine expression down-regulation"}, {"measurement": "Mucosal healing rates", "setting": "[2]", "result": 30.1, "unit": "%"}, {"measurement": "clinical response rates during induction", "setting": "patients with UC; 10 mg/kg, week 8", "result": 61.5, "unit": "%"}, {"measurement": "clinical response rates, maintenance therapy", "setting": "patients with UC; week 53", "result": 19.8, "unit": "%"}, {"measurement": "sustained response rates beyond week 30", "setting": "patients with CD and UC; IBD patients", "result": "30-40%"}, {"measurement": "Primary response rates to induction therapy", "setting": "patients with CD and UC; randomized clinical trials of CD and UC", "result": "up to 60%"}, {"measurement": "patients with undetectable infliximab serum levels", "setting": "[3]; 483 patients with CD during maintenance therapy", "result": 23, "unit": "%"}, {"measurement": "risk to loose response in the presence of ADA", "setting": "[3]; metanalysis, 95% CI:2-4.9", "result": 3.2, "unit": "fold"}, {"measurement": "patients positive for anti-drug antibodies (ADA)", "setting": "[3]; of the CD patients with undetectable infliximab serum levels", "result": 72, "unit": "%"}, {"measurement": "patients developing anti-drug antibodies (ADA)", "setting": "[3]; secondary loss of response", "result": 10, "unit": "%"}, {"measurement": "GM-CSF inhibition by ex vivo infliximab treatment, % patients", "setting": "[4]", "result": 5.9, "unit": "%"}, {"measurement": "GM-CSF inhibition by ex vivo infliximab treatment, N patients", "setting": "[4]", "result": 1}, {"measurement": "IFNγ inhibition by ex vivo infliximab treatment, % patients", "setting": "[4]", "result": 23.5, "unit": "%"}, {"measurement": "IFNγ inhibition by ex vivo infliximab treatment, N patients", "setting": "[4]", "result": 4}, {"measurement": "IL-1β inhibition by ex vivo infliximab treatment, % patients", "setting": "[4]", "result": 11.8, "unit": "%"}, {"measurement": "IL-1β inhibition by ex vivo infliximab treatment, N patients", "setting": "[4]", "result": 2}, {"measurement": "IL-2 inhibition by ex vivo infliximab treatment, % patients", "setting": "[4]", "result": 11.8, "unit": "%"}, {"measurement": "IL-2 inhibition by ex vivo infliximab treatment, N patients", "setting": "[4]", "result": 2}, {"measurement": "IL-4 inhibition by ex vivo infliximab treatment, % patients", "setting": "[4]", "result": 5.9, "unit": "%"}, {"measurement": "IL-4 inhibition by ex vivo infliximab treatment, N patients", "setting": "[4]", "result": 1}, {"measurement": "IL-5 inhibition by ex vivo infliximab treatment, N patients", "setting": "[4]", "result": 1}, {"measurement": "IL-6 inhibition by ex vivo infliximab treatment, % patients", "setting": "[4]", "result": 5.9, "unit": "%"}, {"measurement": "IL-6 inhibition by ex vivo infliximab treatment, N patients", "setting": "[4]", "result": 1}, {"measurement": "IL-7 inhibition by ex vivo infliximab treatment, % patients", "setting": "[4]", "result": 0.0, "unit": "%"}, {"measurement": "IL-7 inhibition by ex vivo infliximab treatment, N patients", "setting": "[4]", "result": 0}, {"measurement": "IL-8 inhibition by ex vivo infliximab treatment, % patients", "setting": "[4]", "result": 5.9, "unit": "%"}, {"measurement": "IL-8 inhibition by ex vivo infliximab treatment, N patients", "setting": "[4]", "result": 1}, {"measurement": "IL-10 inhibition by ex vivo infliximab treatment, % patients", "setting": "[4]", "result": 11.8, "unit": "%"}, {"measurement": "IL-10 inhibition by ex vivo infliximab treatment, N patients", "setting": "[4]", "result": 2}, {"measurement": "IL-12p40 inhibition by ex vivo infliximab treatment, N patients", "setting": "[4]", "result": 3}, {"measurement": "IL-12p70 inhibition by ex vivo infliximab treatment, % patients", "setting": "[4]", "result": 17.6, "unit": "%"}, {"measurement": "IL-12p70 inhibition by ex vivo infliximab treatment, N patients", "setting": "[4]", "result": 3}, {"measurement": "IL-13 inhibition by ex vivo infliximab treatment, N patients", "setting": "[4]", "result": 0}, {"measurement": "IL-17A inhibition by ex vivo infliximab treatment, N patients", "setting": "[4]", "result": 0}, {"measurement": "MCP-1 inhibition by ex vivo infliximab treatment, % patients", "setting": "[4]", "result": 5.9, "unit": "%"}, {"measurement": "MCP-1 inhibition by ex vivo infliximab treatment, N patients", "setting": "[4]", "result": 1}, {"measurement": "IL-5 inhibition by ex vivo infliximab treatment, % patients", "setting": "[4]; [5]", "result": 7.7, "unit": "%"}, {"measurement": "IL-12p40 inhibition by ex vivo infliximab treatment, % patients", "setting": "[4]; [5]", "result": "20.0^∧ %"}, {"measurement": "IL-13 inhibition by ex vivo infliximab treatment, % patients", "setting": "[4]; [5]", "result": "0.0^∧ %"}]}]}
